The molecules below were run on leukotriene pathway in human whole blood (LTB4 levels) (assay: Human whole blood assay (LTB4)). Details: human whole blood diluted 1:1 in RPMI, stimulated with calcium ionophore A23187; single replicate.
Format: cell-based
Procedure: The ability of the compounds of the present invention to treat a FLAP-mediated disease and/or disorder, or associated symptoms or complications thereof, was determined using the following procedures. Binding assay data represent the average value obtained from two different assay plates, with samples run in duplicate on each plate. Human whole blood assay data represent a single replicate on an assay plate using whole blood from at least one healthy donor.
An in vitro cellular assay was performed using human whole blood collected in heparin-containing tubes, which was used to test the ability of compounds to modulate the leukotriene pathway in human whole blood. The blood was diluted 1:1 in RPMI medium, pre-incubated for 15 min at 37° Celsius with test compounds at various concentrations, and then stimulated with calcium ionophore, A23187 (7 μg/mL), for 30 min at 37° Celsius. The samples were then centrifuged and plasma was removed. The plasma was diluted in assay buffer and LTB4 levels were measured using a commercial kit (Enzo Life Sciences). The concentration of each compound that was required for half-maximal inhibition (modulation) of recombinant enzyme activity (IC50) was calculated by a 4-parameter equation using the program GraphPad Prism (GraphPad software).
An IC50 of 771 nM was found for “2-[3-(Benzyloxy)-4-cyclobutyl-2- fluorophenyl]-5H-pyrrolo[2,3-b]pyrazine [Example 177]” in this work. An IC50 of 644 nM was found for Nc1cnc(-c2ccc(C3CCC3)c(OCC(O)CNc3ncccn3)c2F)cn1 (racemic) [Example 56, racemic 1-(3-(5-Aminopyrazin-2-yl)-6-cyclobutyl-2-fluorophenoxy)-3-(pyrimidin-2-ylamino)propan-2-ol] in this work. An IC50 of 732 nM was found for Nc1cnc(-c2ccc(C3CCC3)c(OCC(O)Cn3cccn3)c2F)cn1 (racemic) [Example 60, racemic 1-(3-(5-Aminopyrazin-2-yl)-6-cyclobutyl-2-fluorophenoxy)-3-(1H-pyrazol-1-yl)propan-2-ol] in this work. An IC50 of 107 nM was found for N#Cc1cnn(CC(O)COc2c(C3CCC3)ccc(-c3cnc(N)cn3)c2F)c1N (racemic) [Example 65, racemic 5-Amino-1-(3-(3-(5-aminopyrazin-2-yl)-6-cyclobutyl-2-fluorophenoxy)-2-hydroxypropyl)-1H-pyrazole-4-carbonitrile] in this work. An IC50 of 727 nM was found for Nc1cnc(-c2ccc(C3CCC3)c(OCC(O)CNc3ccn[nH]3)c2F)cn1 (racemic) [Example 67, racemic 1-((1H-Pyrazol-5-yl)amino)-3-(3-(5-aminopyrazin-2-yl)-6-cyclobutyl-2-fluorophenoxy)propan-2-ol] in this work. An IC50 of 1220 nM was found for CS(=O)(=O)c1cccc(COc2c(C3CCC3)ccc(-c3cnc(N)cn3)c2F)c1 [Example 6, 5-(4-Cyclobutyl-2-fluoro-3-{[3-(methylsulfonyl)benzyl]oxy}phenyl)-pyrazin-2-amine] in this work. An IC50 of 1410 nM was found for Nc1cnc(-c2ccc(C3CCC3)c(OCc3ccc(F)c(F)c3)c2F)cn1 [Example 33, 5-{4-Cyclobutyl-3-[(3,4-difluorobenzyl)oxy]-2-fluorophenyl}pyrazin-2-amine] in this work. An IC50 of 736 nM was found for Nc1cnc(-c2ccc(C3CCC3)c(OCc3cc(Cl)ccc3Cl)c2F)cn1 [Example 38, 5-{4-Cyclobutyl-3-[(2,5-dichlorobenzyl)oxy]-2-fluorophenyl}pyrazin-2-amine] in this work. An IC50 of 175 nM was found for Nc1cnc(-c2ccc(C3CCC3)c(OCc3nc(C4CC4)no3)c2F)cn1 [Example 48, 5-{4-Cyclobutyl-3-[(3-cyclopropyl-1,2,4-oxadiazol-5-yl)methoxy]-2-fluorophenyl}pyrazin-2-amine] in this work. An IC50 of 1150 nM was found for CC(C)(C)OC(=O)COc1c(C2CCC2)ccc(-c2cnc(N)cn2)c1F [Example 49, tert-Butyl [3-(5-aminopyrazin-2-yl)-6-cyclobutyl-2-fluorophenoxy]acetate] in this work. An IC50 of 413 nM was found for Cc1nc(COc2c(C3CCC3)ccc(-c3cnc(N)cn3)c2F)no1 [Example 70, 5-{4-Cyclobutyl-2-fluoro-3-[(5-methyl-1,2,4-oxadiazol-3-yl)methoxy]phenyl}pyrazin-2-amine] in this work. An IC50 of 1020 nM was found for CCOC(=O)c1ccc(COc2c(C3CCC3)ccc(-c3cnc(N)cn3)c2F)o1 [Example 73, Ethyl 5-{[3-(5-aminopyrazin-2-yl)-6-cyclobutyl-2-fluorophenoxy]methyl}furan-2-carboxylate] in this work. An IC50 of 1380 nM was found for Nc1cnc(-c2ccc(C3CCC3)c(OCc3cc(S(F)(F)(F)(F)F)ccc3F)c2F)cn1 [Example 77, 5-(4-Cyclobutyl-2-fluoro-3-{[2-fluoro-5-(pentafluoro-lambda~6~- sulfanyl)benzyl]oxy}phenyl)pyrazin-2-amine] in this work. An IC50 of 10000 nM was found for Nc1cnc(-c2ccc(C3CCC3)c(OCc3ccc(C(=O)O)o3)c2F)cn1 [Example 85, 5-{[3-(5-Aminopyrazin-2-yl)-6-cyclobutyl-2-fluorophenoxy]methyl}furan-2-carboxylic acid] in this work. An IC50 of 53.8 nM was found for CC(C)c1ccnc(Oc2c(C3CCC3)ccc(-c3cnc(N)cn3)c2F)n1 [Example 90, 5-(4-Cyclobutyl-2-fluoro-3-{[4-(1-methylethyl)pyrimidin-2-yl]oxy}phenyl)pyrazin-2-amine] in this work. An IC50 of 6660 nM was found for N#Cc1ccnc(Oc2c(C3CCC3)ccc(-c3cnc(N)cn3)c2F)n1 [Example 92, 2-[3-(5-Aminopyrazin-2-yl)-6-cyclobutyl-2-fluorophenoxy]pyrimidine-4-carbonitrile] in this work. An IC50 of 375 nM was found for N#Cc1ccc(Oc2c(C3CCC3)ccc(-c3cnc(N)cn3)c2F)nc1 [Example 114, 6-[3-(5-Aminopyrazin-2-yl)-6-cyclobutyl-2-fluorophenoxy]pyridine-3-carbonitrile] in this work. An IC50 of 503 nM was found for CS(=O)(=O)c1ccc(Oc2c(C3CCC3)ccc(-c3cnc(N)cn3)c2F)cc1 [Example 116, 5-{4-Cyclobutyl-2-fluoro-3-[4-(methylsulfonyl)phenoxy]phenyl}pyrazin-2-amine] in this work. An IC50 of 12.4 nM was found for CC(C)c1nccc(Oc2c(C3CCC3)ccc(-c3cnc(N)cn3)c2F)n1 [Example 135, 5-(4-Cyclobutyl-2-fluoro-3-{[2-(1-methylethyl)pyrimidin-4-yl]oxy}phenyl)pyrazin-2-amine] in this work. An IC50 of 170 nM was found for NC(=O)c1ccc(Oc2c(C3CCC3)ccc(-c3cnc(N)cn3)c2F)cc1 [Example 155, 4-[3-(5-Aminopyrazin-2-yl)-6-cyclobutyl-2-fluorophenoxy]benzamide] in this work. An IC50 of 2370 nM was found for COc1c(C2CCC2)ccc(-c2cnc3c(c2)CCN3)c1F [Example 198, 5-(4-cyclobutyl-2-fluoro-3-methoxyphenyl)-2,3-dihydro-1H-pyrrolo[2,3-b]pyridine] in this work. An IC50 of 80.5 nM was found for CC(C)(C)c1ccc(-c2cnc(N)cn2)c(F)c1Oc1cc(N)ncn1 [Example 202, 6-[3-(5-Aminopyrazin-2-yl)-6-tert-butyl-2-fluorophenoxy]pyrimidin-4-amine] in this work. An IC50 of 3480 nM was found for N#Cc1nc(-c2ccc(C3CCC3)c(O)c2F)cnc1N [Example 222, 3-amino-6-(4-cyclobutyl-2-fluoro-3-hydroxyphenyl)pyrazine-2-carbonitrile] in this work. An IC50 of 480 nM was found for COc1cc(Oc2c(C3CCC3)ccc(-c3cnc4[nH]ccc4c3)c2F)ncn1 [Example 228, 5-(4-cyclobutyl-2-fluoro-3-((6-methoxypyrimidin-4-yl)oxy)phenyl)-1H-pyrrolo[2,3-b]pyridine] in this work. An IC50 of 417 nM was found for CC(C)(C)OC(=O)N1CCC(COc2c(C3CCC3)ccc(-c3cnc(N)cn3)c2F)C1 (centres unmarked) [Example 247, tert-butyl 3-((3-(5-aminopyrazin-2-yl)-6-cyclobutyl-2-fluoro-phenoxy)methyl)pyrrolidine-1-carboxylate] in this work. An IC50 of 85.3 nM was found for Nc1cnc(-c2ccc(C3CCC3)c(Oc3cnc4cc(F)c(F)cc4n3)c2F)cn1 [Example 271, 5-{4-Cyclobutyl-3-[(6,7-difluoroquinoxalin-2-yl)oxy]-2-fluorophenyl}pyrazin-2-amine] in this work. An IC50 of 160 nM was found for COC(=O)c1ccc2oc(COc3c(C4CCC4)ccc(-c4cnc(N)cn4)c3F)nc2c1 [Example 274, Methyl 2-{[3-(5-aminopyrazin-2-yl)-6-cyclobutyl-2-fluorophenoxy]methyl}-1,3-benzoxazole-5-carboxylate] in this work. An IC50 of 1960 nM was found for COC(=O)c1ccc(O)c(NC(=O)COc2c(C3CCC3)ccc(-c3cnc(N)cn3)c2F)c1 [Example 275, Methyl 3-({[3-(5-aminopyrazin-2-yl)-6-cyclobutyl-2-fluorophenoxy]acetyl}amino)-4-hydroxybenzoate] in this work. An IC50 of 167 nM was found for Nc1cnc(-c2ccc(C3CCCCC3)c(Oc3ncccn3)c2F)cn1 [Example 320, 5-(4-Cyclohexyl-2-fluoro-3-(pyrimidin-2-yloxy)phenyl)pyrazin-2-amine] in this work.
